Assays:
[1] = target: 5-hydroxytryptamine receptor 1D (Homo sapiens, UniProt P28221); assay: GPCRScan assay: inhibition of 5-HT1D; set-up: radioligand conc. used [nm] 1.0 – 2.0, parental cells HEKT
Histamine H3 receptor = Histamine H3 receptor (Homo sapiens, UniProt Q9Y5N1); assay: GPCRScan assay: inhibition of H3; set-up: radioligand conc. used [nm] 0.5 – 1.0, parental cells HEK Flp-In
[2] = target: Beta-3 adrenergic receptor (Homo sapiens, UniProt P13945); assay: GPCRScan assay: inhibition of Beta3; set-up: radioligand conc. used [nm] 0.2 – 0.5, parental cells HEK Flp-In
Sequence of Beta-3 adrenergic receptor (P13945 whole entry): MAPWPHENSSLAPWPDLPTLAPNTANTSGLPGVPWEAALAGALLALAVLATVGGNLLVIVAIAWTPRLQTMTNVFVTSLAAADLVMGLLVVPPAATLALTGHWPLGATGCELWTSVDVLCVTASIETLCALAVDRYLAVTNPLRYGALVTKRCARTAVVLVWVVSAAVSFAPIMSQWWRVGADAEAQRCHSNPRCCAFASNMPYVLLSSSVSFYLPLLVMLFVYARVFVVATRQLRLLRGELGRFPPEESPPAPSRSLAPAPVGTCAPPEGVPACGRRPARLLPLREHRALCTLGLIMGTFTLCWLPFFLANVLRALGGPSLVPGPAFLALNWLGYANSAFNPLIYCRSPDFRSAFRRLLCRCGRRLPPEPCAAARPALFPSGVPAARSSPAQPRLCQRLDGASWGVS

[3] = target: Aurora kinase B (Homo sapiens) (UniProt Q96GD4); assay: AURKB SGC Tm panel (DSF); details: Compound concentration 20.0 uM
[4] = target: Bromodomain-containing protein 4 (Homo sapiens) (UniProt O60885); assay: BRD4 SGC Tm panel (DSF); details: Compound concentration 20.0 uM
[5] = target: Cyclin-dependent kinase 2 (Homo sapiens) (UniProt P24941); assay: CDK2 SGC Tm panel (DSF); details: Compound concentration 20.0 uM
[6] = target: Serine/threonine-protein kinase Chk2 (Homo sapiens) (UniProt O96017); assay: CHEK2 SGC Tm panel (DSF); details: Compound concentration 20.0 uM
[7] = target: Casein kinase II subunit alpha (Homo sapiens) (UniProt P68400); assay: CSNK2A1 SGC Tm panel (DSF); details: Compound concentration 20.0 uM
[8] = target: Ephrin type-B receptor 3 (Homo sapiens) (UniProt P54753); assay: EPHB3 SGC Tm panel (DSF); details: Compound concentration 20.0 uM
[9] = target: Fibroblast growth factor receptor 3 (Homo sapiens) (UniProt P22607); assay: FGFR3 SGC Tm panel (DSF); details: Compound concentration 20.0 uM
[10] = target: Glycogen synthase kinase-3 beta (Homo sapiens) (UniProt P49841); assay: GSK3B SGC Tm panel (DSF); details: Compound concentration 20.0 uM
[11] = target: Homeodomain-interacting protein kinase 2 (Homo sapiens) (UniProt Q9H2X6); assay: HIPK2 SGC Tm panel (DSF); details: Compound concentration 20.0 uM
[12] = target: MAP kinase-activated protein kinase 2 (Homo sapiens) (UniProt P49137); assay: MAPKAPK2 SGC Tm panel (DSF); details: Compound concentration 20.0 uM
[13] = target: STE20-like serine/threonine-protein kinase (Homo sapiens) (UniProt Q9H2G2); assay: SLK SGC Tm panel (DSF); details: Compound concentration 20.0 uM
[14] = target: Serine/threonine-protein kinase 17B (Homo sapiens) (UniProt O94768); assay: STK17B SGC Tm panel (DSF); details: Compound concentration 20.0 uM
[15] = target: Dual specificity protein kinase TTK (Homo sapiens) (UniProt P33981); assay: TTK SGC Tm panel (DSF); details: Compound concentration 20.0 uM
Sequence of Dual specificity protein kinase TTK (Homo sapiens) (P33981 whole entry): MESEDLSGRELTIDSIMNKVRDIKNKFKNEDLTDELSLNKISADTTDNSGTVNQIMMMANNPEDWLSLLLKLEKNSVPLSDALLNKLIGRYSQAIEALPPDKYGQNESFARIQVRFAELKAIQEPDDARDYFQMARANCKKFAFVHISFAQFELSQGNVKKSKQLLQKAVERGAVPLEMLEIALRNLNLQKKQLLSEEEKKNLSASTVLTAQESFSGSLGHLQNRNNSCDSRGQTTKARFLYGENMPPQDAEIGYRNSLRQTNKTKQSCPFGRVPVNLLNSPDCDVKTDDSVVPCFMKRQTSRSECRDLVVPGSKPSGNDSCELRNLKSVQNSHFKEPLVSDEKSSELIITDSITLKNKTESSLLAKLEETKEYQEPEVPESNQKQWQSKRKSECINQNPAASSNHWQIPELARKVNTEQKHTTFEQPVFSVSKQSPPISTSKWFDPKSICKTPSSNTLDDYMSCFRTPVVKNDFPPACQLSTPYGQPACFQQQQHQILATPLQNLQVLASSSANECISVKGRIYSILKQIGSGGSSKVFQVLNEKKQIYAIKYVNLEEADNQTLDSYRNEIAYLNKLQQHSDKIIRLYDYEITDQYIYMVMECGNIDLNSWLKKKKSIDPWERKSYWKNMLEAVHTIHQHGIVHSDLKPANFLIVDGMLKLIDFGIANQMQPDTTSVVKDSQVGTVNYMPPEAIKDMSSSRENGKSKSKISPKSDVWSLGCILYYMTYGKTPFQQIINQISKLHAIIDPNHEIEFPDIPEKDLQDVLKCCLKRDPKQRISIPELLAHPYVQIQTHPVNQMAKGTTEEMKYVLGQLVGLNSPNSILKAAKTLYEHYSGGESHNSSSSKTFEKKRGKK

[16] = target: Serine/threonine-protein kinase ULK3 (Homo sapiens) (UniProt Q6PHR2); assay: ULK3 SGC Tm panel (DSF); details: Compound concentration 20.0 uM
Sequence of Serine/threonine-protein kinase ULK3 (Homo sapiens) (Q6PHR2 whole entry): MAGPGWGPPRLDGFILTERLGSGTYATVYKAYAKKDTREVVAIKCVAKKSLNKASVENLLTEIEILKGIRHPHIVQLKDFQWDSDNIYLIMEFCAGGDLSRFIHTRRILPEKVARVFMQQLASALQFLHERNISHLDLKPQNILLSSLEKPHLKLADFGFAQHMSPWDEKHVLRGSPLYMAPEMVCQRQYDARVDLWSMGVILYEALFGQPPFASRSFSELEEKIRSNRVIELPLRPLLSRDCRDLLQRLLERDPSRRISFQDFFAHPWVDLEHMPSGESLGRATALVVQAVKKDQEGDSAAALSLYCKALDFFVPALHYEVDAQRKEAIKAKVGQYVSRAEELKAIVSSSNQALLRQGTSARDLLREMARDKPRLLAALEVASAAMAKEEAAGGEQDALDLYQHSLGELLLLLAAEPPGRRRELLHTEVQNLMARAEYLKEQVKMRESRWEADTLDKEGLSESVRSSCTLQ

[17] = target: D(1B) dopamine receptor (Homo sapiens) (UniProt P21918); details: Compound concentration 10.0 uM
Sequence of D(1B) dopamine receptor (Homo sapiens) (P21918 whole entry): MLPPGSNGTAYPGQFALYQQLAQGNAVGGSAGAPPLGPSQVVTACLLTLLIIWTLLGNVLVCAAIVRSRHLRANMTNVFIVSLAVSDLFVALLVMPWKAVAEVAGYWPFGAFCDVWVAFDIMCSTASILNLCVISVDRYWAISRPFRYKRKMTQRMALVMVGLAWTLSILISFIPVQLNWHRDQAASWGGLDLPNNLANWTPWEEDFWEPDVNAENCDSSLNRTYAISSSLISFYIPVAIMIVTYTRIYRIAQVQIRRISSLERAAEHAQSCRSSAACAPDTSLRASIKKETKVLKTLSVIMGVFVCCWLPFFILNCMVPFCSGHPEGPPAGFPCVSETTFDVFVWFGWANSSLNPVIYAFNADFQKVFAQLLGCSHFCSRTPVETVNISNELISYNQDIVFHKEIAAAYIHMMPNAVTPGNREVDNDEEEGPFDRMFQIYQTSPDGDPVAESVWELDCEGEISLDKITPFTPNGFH

[18] = target: Histamine H2 receptor (Homo sapiens) (UniProt P25021); details: Compound concentration 10.0 uM
Sequence of Histamine H2 receptor (Homo sapiens) (P25021 whole entry): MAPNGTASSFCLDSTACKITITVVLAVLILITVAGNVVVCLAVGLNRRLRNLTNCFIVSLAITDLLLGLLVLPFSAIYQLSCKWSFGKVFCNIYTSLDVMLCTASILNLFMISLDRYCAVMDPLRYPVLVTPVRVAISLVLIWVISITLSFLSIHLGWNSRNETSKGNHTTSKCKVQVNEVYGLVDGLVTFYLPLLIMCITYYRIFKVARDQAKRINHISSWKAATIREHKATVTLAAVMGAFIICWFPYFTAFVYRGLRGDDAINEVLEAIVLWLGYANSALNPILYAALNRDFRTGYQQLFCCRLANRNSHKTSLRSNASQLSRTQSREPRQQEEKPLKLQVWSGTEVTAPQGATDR

[19] = target: Alpha-2C adrenergic receptor (Homo sapiens) (UniProt P18825); details: Compound concentration 10.0 uM
[20] = target: Muscarinic acetylcholine receptor M2 (Homo sapiens) (UniProt P08172); details: Compound concentration 10.0 uM
Sequence of Muscarinic acetylcholine receptor M2 (Homo sapiens) (P08172 whole entry): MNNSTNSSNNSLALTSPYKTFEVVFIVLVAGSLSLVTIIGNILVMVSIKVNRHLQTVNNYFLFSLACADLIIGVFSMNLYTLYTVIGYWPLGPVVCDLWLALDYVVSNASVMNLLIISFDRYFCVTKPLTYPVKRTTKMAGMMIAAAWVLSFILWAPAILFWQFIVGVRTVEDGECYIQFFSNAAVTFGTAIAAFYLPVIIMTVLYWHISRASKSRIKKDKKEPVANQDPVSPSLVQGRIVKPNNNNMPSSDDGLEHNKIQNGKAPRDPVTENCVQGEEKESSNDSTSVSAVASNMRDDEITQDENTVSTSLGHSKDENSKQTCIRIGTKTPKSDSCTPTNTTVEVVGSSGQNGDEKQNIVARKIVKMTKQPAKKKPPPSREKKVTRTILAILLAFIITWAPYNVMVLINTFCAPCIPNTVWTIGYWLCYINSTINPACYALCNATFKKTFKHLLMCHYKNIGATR

[21] = target: Muscarinic acetylcholine receptor M5 (Homo sapiens) (UniProt P08912); details: Compound concentration 10.0 uM
[22] = target: Sigma intracellular receptor 2 (Homo sapiens, UniProt Q5BJF2); details: Compound concentration 10.0 uM
Sequence of Sigma intracellular receptor 2 (Q5BJF2 whole entry): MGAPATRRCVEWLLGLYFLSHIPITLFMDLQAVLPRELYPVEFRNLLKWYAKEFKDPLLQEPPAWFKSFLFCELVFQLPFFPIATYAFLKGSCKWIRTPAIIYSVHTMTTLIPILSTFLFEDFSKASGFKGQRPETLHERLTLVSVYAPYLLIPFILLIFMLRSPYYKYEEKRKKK

[23] = target: Transcription regulator protein BACH2 (Homo sapiens) (UniProt Q9BYV9); details: SUD4, Compound concentration 1.0 uM
[24] = target: Zinc finger and BTB domain-containing protein 17 (Homo sapiens) (UniProt Q13105); details: SUD4, Compound concentration 1.0 uM
Sequence of Zinc finger and BTB domain-containing protein 17 (Homo sapiens) (Q13105 whole entry, the tested form may be a part): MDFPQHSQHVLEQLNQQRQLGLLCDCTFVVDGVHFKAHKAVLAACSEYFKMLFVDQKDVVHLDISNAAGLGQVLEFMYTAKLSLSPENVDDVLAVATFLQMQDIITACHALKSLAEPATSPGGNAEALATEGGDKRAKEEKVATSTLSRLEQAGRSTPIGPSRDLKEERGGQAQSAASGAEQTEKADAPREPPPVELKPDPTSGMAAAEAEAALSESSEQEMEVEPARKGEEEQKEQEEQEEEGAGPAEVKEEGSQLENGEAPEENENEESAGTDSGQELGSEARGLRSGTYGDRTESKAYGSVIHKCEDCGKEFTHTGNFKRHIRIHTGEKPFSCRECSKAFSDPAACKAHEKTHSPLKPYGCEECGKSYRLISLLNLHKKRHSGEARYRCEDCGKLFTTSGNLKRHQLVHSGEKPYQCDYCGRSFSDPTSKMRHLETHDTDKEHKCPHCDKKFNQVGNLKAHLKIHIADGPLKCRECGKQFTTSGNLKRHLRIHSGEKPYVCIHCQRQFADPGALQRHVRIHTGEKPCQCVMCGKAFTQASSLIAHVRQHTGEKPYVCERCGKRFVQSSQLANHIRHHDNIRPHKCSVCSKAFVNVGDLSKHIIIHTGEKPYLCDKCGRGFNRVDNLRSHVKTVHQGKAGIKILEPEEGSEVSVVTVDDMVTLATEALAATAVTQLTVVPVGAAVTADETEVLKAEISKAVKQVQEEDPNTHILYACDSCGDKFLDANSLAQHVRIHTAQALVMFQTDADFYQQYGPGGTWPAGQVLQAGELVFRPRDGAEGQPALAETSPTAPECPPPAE

[25] = target: T1, Zinc finger and BTB domain-containing protein 1 (Homo sapiens) (UniProt Q9Y2K1); details: SUD4, Compound concentration 1.0 uM
T1 sequence (whole entry): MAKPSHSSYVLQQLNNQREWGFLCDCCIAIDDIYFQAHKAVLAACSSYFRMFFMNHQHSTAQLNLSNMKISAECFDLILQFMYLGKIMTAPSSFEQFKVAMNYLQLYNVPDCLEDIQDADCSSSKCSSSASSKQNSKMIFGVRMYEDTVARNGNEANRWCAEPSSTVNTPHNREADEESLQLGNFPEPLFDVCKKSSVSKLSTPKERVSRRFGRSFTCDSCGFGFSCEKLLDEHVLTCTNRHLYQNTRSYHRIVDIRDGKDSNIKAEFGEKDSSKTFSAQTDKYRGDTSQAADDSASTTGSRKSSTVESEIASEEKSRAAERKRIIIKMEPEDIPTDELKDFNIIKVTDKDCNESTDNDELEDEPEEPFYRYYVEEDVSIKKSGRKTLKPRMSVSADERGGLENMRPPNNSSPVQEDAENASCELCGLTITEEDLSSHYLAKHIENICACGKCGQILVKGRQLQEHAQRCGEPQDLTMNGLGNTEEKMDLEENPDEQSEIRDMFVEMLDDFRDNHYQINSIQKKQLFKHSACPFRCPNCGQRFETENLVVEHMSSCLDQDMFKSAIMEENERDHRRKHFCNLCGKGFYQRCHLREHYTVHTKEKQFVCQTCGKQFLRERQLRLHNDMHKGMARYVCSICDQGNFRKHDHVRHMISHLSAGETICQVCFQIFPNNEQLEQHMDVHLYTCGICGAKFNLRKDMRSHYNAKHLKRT

[26] = target: T2, Transcriptional regulator Kaiso (Homo sapiens) (UniProt Q86T24); details: OCI-Ly1, Compound concentration 1.0 uM
T2 sequence (whole entry): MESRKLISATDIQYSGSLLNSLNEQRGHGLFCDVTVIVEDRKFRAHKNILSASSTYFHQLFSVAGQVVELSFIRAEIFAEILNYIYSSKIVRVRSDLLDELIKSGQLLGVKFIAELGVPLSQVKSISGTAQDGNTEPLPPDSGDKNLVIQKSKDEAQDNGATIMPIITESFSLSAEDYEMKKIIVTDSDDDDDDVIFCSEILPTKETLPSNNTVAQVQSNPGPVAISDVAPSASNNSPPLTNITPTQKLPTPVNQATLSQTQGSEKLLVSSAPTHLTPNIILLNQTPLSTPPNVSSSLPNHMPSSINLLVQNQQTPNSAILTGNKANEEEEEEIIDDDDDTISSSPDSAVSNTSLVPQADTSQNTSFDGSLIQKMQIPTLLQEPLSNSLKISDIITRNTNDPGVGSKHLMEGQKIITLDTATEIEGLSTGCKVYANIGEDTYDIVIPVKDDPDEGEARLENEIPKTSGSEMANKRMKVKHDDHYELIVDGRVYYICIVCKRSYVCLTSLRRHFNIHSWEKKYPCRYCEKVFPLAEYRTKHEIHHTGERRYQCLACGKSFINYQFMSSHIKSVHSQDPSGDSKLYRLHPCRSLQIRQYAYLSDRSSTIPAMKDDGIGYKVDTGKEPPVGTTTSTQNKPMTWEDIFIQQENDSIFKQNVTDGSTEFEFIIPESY

Sequence of Histamine H3 receptor (Q9Y5N1 whole entry): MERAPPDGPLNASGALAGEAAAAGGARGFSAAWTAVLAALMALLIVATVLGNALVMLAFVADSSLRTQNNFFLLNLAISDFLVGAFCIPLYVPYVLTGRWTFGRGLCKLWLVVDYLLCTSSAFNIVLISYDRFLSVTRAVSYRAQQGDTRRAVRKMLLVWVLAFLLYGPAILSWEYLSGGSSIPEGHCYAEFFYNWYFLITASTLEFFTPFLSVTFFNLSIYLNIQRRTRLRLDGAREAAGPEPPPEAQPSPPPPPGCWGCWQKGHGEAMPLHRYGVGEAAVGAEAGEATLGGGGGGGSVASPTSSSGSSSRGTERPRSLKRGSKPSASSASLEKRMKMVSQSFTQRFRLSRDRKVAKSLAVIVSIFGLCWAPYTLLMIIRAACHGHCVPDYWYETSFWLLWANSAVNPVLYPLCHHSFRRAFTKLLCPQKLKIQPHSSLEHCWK
Sequence of 5-hydroxytryptamine receptor 1D (P28221 whole entry): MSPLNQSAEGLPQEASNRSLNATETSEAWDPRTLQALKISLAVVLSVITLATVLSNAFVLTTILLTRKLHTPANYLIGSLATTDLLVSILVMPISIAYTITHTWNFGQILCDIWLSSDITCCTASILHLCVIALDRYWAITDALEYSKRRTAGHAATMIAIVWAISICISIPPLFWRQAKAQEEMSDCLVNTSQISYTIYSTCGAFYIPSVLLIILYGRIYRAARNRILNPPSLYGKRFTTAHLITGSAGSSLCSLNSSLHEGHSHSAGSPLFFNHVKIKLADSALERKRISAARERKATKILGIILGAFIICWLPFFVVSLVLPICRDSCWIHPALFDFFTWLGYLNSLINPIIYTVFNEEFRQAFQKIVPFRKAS

Molecule `C[C@@H]1CN(c2ncc(Cl)c(Nc3ccc4c(c3)n(CCC(C)(C)O)c(=O)n4C)n2)C[C@H](C)C1(F)F` has a Ki [1] of 6.17 µM, a Ki (Histamine H3 receptor; read-out: Ki) of 2330 nM and a Ki (Histamine H3 receptor; read-out: pKi (converted)) of 2040 nM. For the same molecule, the Ki ([2]; read-out: Ki) was 3.99 µM, the Ki ([2]; read-out: pKi (converted)) was 3.89 µM and the Tm [3] was 46 °C. The Tm [4] was 44 °C, the Tm [5] was 46 °C and the Tm [6] was 44 °C. For the same molecule, the Tm [7] was 44 °C, the Tm [8] was 52 °C and the Tm [9] was 42 °C. For the same molecule, the Tm [10] was 45 °C, the Tm [11] was 43 °C and the Tm [12] was 46 °C. The Tm [13] was 42 °C, the Tm [14] was 43 °C and the Tm [15] was 46 °C. For the same molecule, the Tm [16] was 44 °C, the inhibition [17] was 26.2% and the inhibition [18] was 43.7%. The inhibition [19] was 15.1%, the inhibition [20] was 0.77% and the inhibition [21] was 20.6%. It also gave an inhibition [22] of 85.7%, a LogFC [23] of -0.0358 and a LogFC [24] of 0.0294. It also gave a LogFC [25] of -0.0255 and a LogFC [26] of -0.0964.
